Experiments:
[1] = molecular target: Tyrosine-protein kinase CSK (Homo sapiens) (UniProt P41240); conditions: at 10 µM
[2] = molecular target: Glycogen synthase kinase-3 beta (Homo sapiens, UniProt P49841); experiment: Selectivity interaction (Kinase panel (DSF assay)) EUB0001559a GSK3B
[3] = molecular target: T1, Serine/threonine-protein kinase RIO3 (Homo sapiens) (UniProt O14730); experiment: Selectivity interaction (KinomeScan (DiscoverX)) EUB0000045b RIOK3
T1 sequence (whole entry): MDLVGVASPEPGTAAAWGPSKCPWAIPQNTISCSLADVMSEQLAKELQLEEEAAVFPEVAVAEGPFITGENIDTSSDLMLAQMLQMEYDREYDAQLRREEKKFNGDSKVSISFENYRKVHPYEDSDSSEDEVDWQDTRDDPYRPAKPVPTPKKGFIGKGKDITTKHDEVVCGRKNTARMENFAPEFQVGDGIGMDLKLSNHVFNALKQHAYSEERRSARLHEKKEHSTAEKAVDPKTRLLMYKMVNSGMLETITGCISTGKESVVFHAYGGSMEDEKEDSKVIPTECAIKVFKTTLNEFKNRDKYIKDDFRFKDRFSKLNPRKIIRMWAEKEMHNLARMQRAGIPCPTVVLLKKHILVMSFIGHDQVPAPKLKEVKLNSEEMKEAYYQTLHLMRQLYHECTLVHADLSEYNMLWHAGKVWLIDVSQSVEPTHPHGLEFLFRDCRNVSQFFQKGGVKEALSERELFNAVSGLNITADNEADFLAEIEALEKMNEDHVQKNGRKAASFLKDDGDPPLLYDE

[4] = molecular target: Serine/threonine-protein kinase PRP4 homolog (Homo sapiens) (UniProt Q13523); experiment: Selectivity interaction (KinomeScan (DiscoverX)) EUB0000695a PRPF4B; conditions: at 100 nM
[5] = molecular target: T2, Serine/threonine-protein kinase D2 (Homo sapiens) (UniProt Q9BZL6); experiment: Selectivity interaction (Kinase panel (Z-LYTE Assay)) EUB0001632a PRKD2; conditions: at 10 µM
T2 sequence (whole entry): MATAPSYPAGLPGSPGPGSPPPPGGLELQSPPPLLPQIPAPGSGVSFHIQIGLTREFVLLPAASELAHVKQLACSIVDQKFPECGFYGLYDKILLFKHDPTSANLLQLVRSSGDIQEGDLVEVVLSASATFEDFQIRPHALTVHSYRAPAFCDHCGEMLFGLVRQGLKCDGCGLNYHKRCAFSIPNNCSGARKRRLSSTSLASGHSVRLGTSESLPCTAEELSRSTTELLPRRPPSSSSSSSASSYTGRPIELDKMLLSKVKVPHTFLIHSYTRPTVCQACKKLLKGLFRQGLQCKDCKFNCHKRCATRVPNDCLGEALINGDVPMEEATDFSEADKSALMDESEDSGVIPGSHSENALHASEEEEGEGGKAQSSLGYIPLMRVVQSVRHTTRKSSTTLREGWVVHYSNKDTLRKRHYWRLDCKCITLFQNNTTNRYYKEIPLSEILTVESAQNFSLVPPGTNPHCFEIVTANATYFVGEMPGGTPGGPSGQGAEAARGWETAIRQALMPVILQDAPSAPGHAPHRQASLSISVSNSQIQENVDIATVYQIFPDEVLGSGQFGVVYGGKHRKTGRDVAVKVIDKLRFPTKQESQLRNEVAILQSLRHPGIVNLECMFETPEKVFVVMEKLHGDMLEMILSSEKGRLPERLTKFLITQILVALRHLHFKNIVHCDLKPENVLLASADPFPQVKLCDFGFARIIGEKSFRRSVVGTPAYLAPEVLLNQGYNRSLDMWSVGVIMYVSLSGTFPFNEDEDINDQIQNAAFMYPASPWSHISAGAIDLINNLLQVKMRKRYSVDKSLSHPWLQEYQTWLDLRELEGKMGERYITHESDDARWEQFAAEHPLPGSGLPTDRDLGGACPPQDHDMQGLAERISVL

[6] = molecular target: T3, Tyrosine-protein kinase Mer (Homo sapiens) (UniProt Q12866); experiment: Selectivity interaction (KinomeScan (DiscoverX)) EUB0001619a MERTK; conditions: at 1 µM
T3 sequence (whole entry): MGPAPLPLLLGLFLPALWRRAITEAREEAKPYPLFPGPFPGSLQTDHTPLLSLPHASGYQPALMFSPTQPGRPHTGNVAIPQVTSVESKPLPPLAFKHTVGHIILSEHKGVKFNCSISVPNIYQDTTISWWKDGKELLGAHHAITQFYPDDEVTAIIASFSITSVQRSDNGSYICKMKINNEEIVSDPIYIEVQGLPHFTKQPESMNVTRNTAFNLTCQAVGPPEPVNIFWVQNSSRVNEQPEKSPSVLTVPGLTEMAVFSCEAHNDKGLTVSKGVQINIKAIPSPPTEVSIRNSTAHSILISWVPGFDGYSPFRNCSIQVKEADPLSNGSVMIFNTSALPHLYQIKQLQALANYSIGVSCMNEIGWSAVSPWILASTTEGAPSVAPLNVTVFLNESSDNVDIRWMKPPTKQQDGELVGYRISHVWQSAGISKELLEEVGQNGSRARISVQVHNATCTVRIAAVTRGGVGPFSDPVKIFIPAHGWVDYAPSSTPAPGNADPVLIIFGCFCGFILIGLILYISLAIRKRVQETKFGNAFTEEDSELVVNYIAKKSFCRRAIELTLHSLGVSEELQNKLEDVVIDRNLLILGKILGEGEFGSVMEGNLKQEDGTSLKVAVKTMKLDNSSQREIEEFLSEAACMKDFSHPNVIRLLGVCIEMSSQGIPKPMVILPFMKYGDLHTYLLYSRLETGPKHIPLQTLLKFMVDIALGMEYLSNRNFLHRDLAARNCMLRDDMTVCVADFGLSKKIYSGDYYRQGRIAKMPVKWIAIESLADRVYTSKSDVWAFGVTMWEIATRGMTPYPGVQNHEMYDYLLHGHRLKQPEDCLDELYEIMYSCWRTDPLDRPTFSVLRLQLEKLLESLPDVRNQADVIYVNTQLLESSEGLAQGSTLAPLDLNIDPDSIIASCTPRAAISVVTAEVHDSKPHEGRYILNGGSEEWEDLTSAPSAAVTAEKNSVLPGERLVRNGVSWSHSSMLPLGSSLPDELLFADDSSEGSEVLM

[7] = molecular target: Wee1-like protein kinase (Homo sapiens) (UniProt P30291); experiment: Selectivity interaction (KinomeScan (DiscoverX)) EUB0000618a WEE1; conditions: at 10 µM
[8] = molecular target: Tyrosine-protein kinase Lyn (Homo sapiens, UniProt P07948); experiment: Selectivity interaction (ActivX KiNativ screen (kinase selectivity in THP-1 cell lysates)) EUB0000639a LYN; assay type: subcellular; conditions: lysate, at 0.04 µM
Sequence of Tyrosine-protein kinase Lyn (P07948 2-512 limits assumed): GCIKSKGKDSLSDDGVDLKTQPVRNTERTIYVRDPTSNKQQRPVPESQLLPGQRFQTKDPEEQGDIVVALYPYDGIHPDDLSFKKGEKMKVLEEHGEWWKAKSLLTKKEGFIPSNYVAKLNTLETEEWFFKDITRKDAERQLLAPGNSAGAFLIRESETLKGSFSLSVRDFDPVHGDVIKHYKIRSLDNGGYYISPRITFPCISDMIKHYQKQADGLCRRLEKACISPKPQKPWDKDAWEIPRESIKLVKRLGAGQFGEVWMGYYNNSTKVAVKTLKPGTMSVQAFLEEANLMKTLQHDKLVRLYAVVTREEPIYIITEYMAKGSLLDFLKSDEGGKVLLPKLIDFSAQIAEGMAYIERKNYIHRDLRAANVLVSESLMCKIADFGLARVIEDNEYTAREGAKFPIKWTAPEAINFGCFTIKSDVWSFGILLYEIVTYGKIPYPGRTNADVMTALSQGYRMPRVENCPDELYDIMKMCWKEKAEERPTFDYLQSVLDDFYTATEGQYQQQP

Sequence of Wee1-like protein kinase (Homo sapiens) (P30291 whole entry, looked up): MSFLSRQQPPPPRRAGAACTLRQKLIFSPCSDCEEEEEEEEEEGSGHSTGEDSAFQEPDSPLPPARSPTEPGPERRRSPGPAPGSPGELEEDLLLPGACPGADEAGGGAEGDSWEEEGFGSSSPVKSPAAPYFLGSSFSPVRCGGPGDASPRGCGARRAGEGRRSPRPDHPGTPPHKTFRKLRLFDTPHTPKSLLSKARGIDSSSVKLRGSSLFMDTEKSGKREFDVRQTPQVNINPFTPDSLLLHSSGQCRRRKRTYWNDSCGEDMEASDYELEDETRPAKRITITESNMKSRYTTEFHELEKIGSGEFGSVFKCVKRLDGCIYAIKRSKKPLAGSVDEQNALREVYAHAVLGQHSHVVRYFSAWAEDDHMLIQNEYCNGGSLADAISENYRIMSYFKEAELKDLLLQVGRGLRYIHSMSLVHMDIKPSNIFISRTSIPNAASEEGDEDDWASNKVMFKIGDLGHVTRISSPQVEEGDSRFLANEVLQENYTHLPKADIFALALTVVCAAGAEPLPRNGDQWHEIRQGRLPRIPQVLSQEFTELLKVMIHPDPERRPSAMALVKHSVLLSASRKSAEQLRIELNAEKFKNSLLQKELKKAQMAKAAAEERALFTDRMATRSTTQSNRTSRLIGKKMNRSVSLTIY
Sequence of Glycogen synthase kinase-3 beta (P49841 whole entry, looked up): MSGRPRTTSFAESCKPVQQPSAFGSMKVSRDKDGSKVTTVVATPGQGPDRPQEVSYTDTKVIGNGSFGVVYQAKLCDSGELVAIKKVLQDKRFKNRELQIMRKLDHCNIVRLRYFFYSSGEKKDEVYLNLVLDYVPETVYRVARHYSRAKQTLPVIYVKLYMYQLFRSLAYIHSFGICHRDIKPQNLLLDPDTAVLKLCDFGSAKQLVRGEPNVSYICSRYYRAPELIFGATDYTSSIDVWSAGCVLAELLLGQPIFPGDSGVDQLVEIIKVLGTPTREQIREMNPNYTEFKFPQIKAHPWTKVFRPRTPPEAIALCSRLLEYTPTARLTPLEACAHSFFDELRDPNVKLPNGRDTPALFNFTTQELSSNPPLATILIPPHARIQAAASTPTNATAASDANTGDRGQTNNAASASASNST
Sequence of Tyrosine-protein kinase CSK (Homo sapiens) (P41240 2-450 limits assumed): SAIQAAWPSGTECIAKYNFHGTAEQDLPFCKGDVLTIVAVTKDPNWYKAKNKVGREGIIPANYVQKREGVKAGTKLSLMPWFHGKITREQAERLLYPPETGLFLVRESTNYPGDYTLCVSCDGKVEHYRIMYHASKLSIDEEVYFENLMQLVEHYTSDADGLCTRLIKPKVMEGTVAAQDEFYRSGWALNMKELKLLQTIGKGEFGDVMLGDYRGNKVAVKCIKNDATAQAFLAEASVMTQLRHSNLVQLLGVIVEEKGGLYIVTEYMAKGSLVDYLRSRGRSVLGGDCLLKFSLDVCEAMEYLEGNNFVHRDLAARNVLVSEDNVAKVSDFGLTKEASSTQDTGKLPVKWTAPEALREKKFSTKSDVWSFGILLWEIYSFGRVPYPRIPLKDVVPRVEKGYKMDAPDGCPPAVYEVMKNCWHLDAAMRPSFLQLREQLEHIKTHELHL
Sequence of Serine/threonine-protein kinase PRP4 homolog (Homo sapiens) (Q13523 whole entry): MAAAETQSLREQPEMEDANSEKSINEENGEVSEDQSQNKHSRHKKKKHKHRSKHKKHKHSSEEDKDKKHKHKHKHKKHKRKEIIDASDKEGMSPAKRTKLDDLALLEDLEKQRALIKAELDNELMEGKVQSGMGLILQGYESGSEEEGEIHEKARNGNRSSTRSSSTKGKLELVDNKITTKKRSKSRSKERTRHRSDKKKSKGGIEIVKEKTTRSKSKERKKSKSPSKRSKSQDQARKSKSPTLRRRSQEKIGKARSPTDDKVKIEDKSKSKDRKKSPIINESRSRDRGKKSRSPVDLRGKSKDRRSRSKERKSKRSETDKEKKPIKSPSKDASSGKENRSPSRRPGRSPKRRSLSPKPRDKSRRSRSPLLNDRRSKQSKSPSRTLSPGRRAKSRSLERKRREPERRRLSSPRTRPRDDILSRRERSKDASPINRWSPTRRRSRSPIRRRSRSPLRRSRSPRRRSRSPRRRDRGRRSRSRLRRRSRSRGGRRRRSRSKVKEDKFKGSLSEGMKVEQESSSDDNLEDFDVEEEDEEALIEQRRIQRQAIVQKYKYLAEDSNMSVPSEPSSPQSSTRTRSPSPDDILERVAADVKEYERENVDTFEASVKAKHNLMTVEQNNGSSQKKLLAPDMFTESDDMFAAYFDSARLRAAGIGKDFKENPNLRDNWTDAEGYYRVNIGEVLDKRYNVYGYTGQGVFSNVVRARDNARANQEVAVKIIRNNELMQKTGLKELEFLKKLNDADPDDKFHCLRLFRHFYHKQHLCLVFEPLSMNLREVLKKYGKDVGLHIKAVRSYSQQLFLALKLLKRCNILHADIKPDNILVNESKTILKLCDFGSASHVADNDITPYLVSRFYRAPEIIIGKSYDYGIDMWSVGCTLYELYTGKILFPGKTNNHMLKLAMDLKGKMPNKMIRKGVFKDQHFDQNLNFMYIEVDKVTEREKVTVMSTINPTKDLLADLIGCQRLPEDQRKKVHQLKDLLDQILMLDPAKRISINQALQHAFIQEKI

COCC(=O)NC/C=C/c1ccc2ncnc(Nc3ccc(Oc4ccc(C)nc4)c(C)c3)c2c1 [CP-724714]
% of control [1]: 59%

CN(C(=O)c1cnn2cccnc12)c1cc2c(cc1N1CCOCC1)C(=O)N(C[C@@H](F)C(C)(C)O)C2
dTM [2]: -0.4 K

C=CC(=O)Nc1cc(-n2c(=O)ccc3cnc4ccc(-c5ccc(NS(C)(=O)=O)cc5)cc4c32)ccc1C
% of control ([3]; at 1 µM): 55% | % of control ([3]; at 10 µM): 60%

Cc1cc(F)c(C(=O)Nc2cccc(-c3nncn3C(C)C)n2)cc1-n1cnc(C2CC2)c1
% of control [4]: 81%

Cn1cc(-n2cnc3c(NCc4nc5cc(Cl)c(Cl)cc5[nH]4)nc(N4CCOCC4)nc32)cn1
% of control [5]: 0.629%

N#Cc1cccc(-c2c[nH]c3ncnc(N4CCOCC4)c23)c1
% of control [6]: 100%

O[C@H]1CC[C@H](Nc2ncc3nc(Nc4c(F)cc(F)cc4F)n([C@H]4CCOC4)c3n2)CC1
% of control [7]: 100%

CC[C@@H]1[C@H](F)C(=O)N[C@@H]1COc1nccc2cc(C(N)=O)c(OC)cc12 [ZIMLOVISERTIB]
% of inhibition [8]: -15.2%

From ChEMBL document CHEMBL5465560, “Selectivity Literature for EUbOPEN Chemogenomic Library” (2024)
